Reference: patent US8802597B2, “Herbicidal pyrimidines” (E I du Pont de Nemours and Company, priority 2003, dated 2014)
Like-named read-outs stand apart in the source and are kept apart here.

Tests used:
Format in all cases: in vivo
[1] = system: wild oat (Avena fatua); assay: Test B postemergence; details: Avena fatua, post-emergence
In short: (§1)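 Formulation: non-phytotoxic solvent blend with surfactant. Timing: preemergence on seeds, postemergence at 1- to 4-leaf (2–18 cm). Assessment: visual, 0–100 against controls, after 13–15 days' greenhouse growth.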

[2] = system: blackgrass (Alopecurus myosuroides); assay: Test B postemergence; details: Alopecurus myosuroides, post-emergence
In short: as §1

[3] = system: duck salad (Heteranthera limosa); assay: Test B flooded paddy test; details: Heteranthera limosa, Flood, 1000 g ai/ha; scale 0 to 100; read-out: Plant response rating, Ducksalad
In short: (§2)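 Plants were grown to the 2-leaf stage before treatment, then kept in a greenhouse for 13 to 15 days. Injury was rated visually against untreated controls on a 0 to 100 scale, where 0 is no effect and 100 is complete control.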

[4] = system: barnyardgrass (Echinochloa crus-galli); assay: Test B flooded paddy test; details: Echinochloa crus-galli, Flood, 1000 g ai/ha; scale 0 (no effect) to 100 (complete control); read-out: Plant response rating, Barnyardgrass
In short: as §2

[5] = system: umbrella sedge (Cyperus difformis); assay: Test B flooded paddy test; details: Cyperus difformis, Flood, 1000 g ai/ha; scale 0 to 100; read-out: Plant response rating, Sedge, Umbrella
In short: as §2

[6] = system: rice (Oryza sativa); assay: Test B flooded paddy test; details: Oryza sativa, Flood, 1000 g ai/ha; scale 0 to 100; read-out: Plant response rating, Rice
In short: as §2

[7] = system: Surinam grass (Brachiaria decumbens); assay: Test B pre/postemergence; details: Urochloa decumbens; for pest or weed control at 125 g/ha: 125 g ai/ha; for pest or weed control at 500 g/ha: 500 g ai/ha
In short: as §1

[8] = system: crabgrass (Digitaria sanguinalis); assay: Test B pre/postemergence; details: Digitaria sanguinalis; for pest or weed control at 125 g/ha: 125 g ai/ha; for pest or weed control at 500 g/ha: 500 g ai/ha
In short: as §1

[9] = system: barnyardgrass (Echinochloa crus-galli); assay: Test B pre/postemergence; details: Echinochloa crus-galli; for pest or weed control at 125 g/ha: 125 g ai/ha; for pest or weed control at 500 g/ha: 500 g ai/ha
In short: as §1

[10] = system: pigweed (Amaranthus retroflexus); assay: Test B pre/postemergence; details: Amaranthus retroflexus; for pest or weed control at 125 g/ha: 125 g ai/ha; for pest or weed control at 500 g/ha: 500 g ai/ha
In short: as §1

[11] = system: velvetleaf (Abutilon theophrasti); assay: Test B pre/postemergence; details: Abutilon theophrasti; for pest or weed control at 125 g/ha: 125 g ai/ha; for pest or weed control at 500 g/ha: 500 g ai/ha
In short: as §1

[12] = system: giant foxtail (Setaria faberii); assay: Test B pre/postemergence; details: Setaria faberi; for pest or weed control at 125 g/ha: 125 g ai/ha; for pest or weed control at 500 g/ha: 500 g ai/ha
In short: as §1

[13] = system: cocklebur (Xanthium strumarium); assay: Test B pre/postemergence; details: Xanthium strumarium; for pest or weed control at 125 g/ha: 125 g ai/ha; for pest or weed control at 500 g/ha: 500 g ai/ha
In short: as §1

[14] = system: lambsquarters (Chenopodium album); assay: Test B pre/postemergence; details: Chenopodium album; for pest or weed control at 125 g/ha: 125 g ai/ha; for pest or weed control at 500 g/ha: 500 g ai/ha
In short: as §1

[15] = system: morningglory (Ipomoea coccinea); assay: Test B pre/postemergence; details: Ipomoea; for pest or weed control at 125 g/ha: 125 g ai/ha; for pest or weed control at 500 g/ha: 500 g ai/ha
In short: as §1

[16] = system: corn (Zea mays); assay: Test B pre/postemergence; details: Zea mays
In short: as §1

[17] = system: wheat (Triticum aestivum); assay: Test B pre/postemergence; details: Triticum aestivum; for plant injury at 125 g/ha: 125 g ai/ha; for plant injury at 500 g/ha: 500 g ai/ha
In short: as §1

[18] = pre-emergence, Preemergence, scale 0 to 100 (0 no effect, 100 complete control), read-out: Plant response rating, Wheat

## CCOC(=O)c1nc(C2CC2)nc(NN)c1Br [Compound 42]
[1]; 125 g ai/ha, scale 0 to 100 (0 no effect, 100 complete control), read-out: Oat, Wild plant response rating
  pest or weed control at 125 g/ha: 0%
[1]; 500 g ai/ha, scale 0 to 100, read-out: Plant response rating, Oat, Wild
  pest or weed control at 500 g/ha: 0%
[2]; 125 g ai/ha, scale 0 to 100 (0 no effect, 100 complete control), read-out: Blackgrass plant response rating
  pest or weed control at 125 g/ha: 30%
[2]; 500 g ai/ha, scale 0 to 100, read-out: Plant response rating, Blackgrass
  pest or weed control at 500 g/ha: 60%
[3]
  pest or weed control at 1000 g/ha: 0%
[4]
  pest or weed control at 1000 g/ha: 0%
[5]
  pest or weed control at 1000 g/ha: 0%
[6]
  plant injury at 1000 g/ha: 0%
[7]; post-emergence, Postemergence, scale 0 to 100 (0 no effect, 100 complete control), read-out: Surinam Grass plant response rating
  pest or weed control at 125 g/ha: 0%
[7]; post-emergence, Postemergence, scale 0 to 100, read-out: Plant response rating, Surinam Grass
  pest or weed control at 500 g/ha: 10%
[7]; pre-emergence, Preemergence, scale 0 to 100 (0 no effect, 100 complete control), read-out: Plant response rating, Surinam Grass
  pest or weed control at 125 g/ha: 0%
[7]; pre-emergence, Preemergence, scale 0 to 100 (0 no effect, 100 complete control), read-out: Surinam Grass plant response rating
  pest or weed control at 500 g/ha: 20%
[8]; post-emergence, Postemergence, scale 0 to 100 (0 no effect, 100 complete control), read-out: Crabgrass plant response rating
  pest or weed control at 125 g/ha: 0%
[8]; post-emergence, Postemergence, scale 0 to 100, read-out: Plant response rating, Crabgrass
  pest or weed control at 500 g/ha: 30%
[8]; pre-emergence, Preemergence, scale 0 to 100 (0 no effect, 100 complete control), read-out: Plant response rating, Crabgrass
  pest or weed control at 125 g/ha: 0%
[8]; pre-emergence, Preemergence, scale 0 to 100 (0 no effect, 100 complete control), read-out: Crabgrass plant response rating
  pest or weed control at 500 g/ha: 20%
[9]; post-emergence, Postemergence, scale 0 to 100 (0 no effect, 100 complete control), read-out: Barnyardgrass plant response rating
  pest or weed control at 125 g/ha: 10%
[9]; post-emergence, Postemergence, scale 0 to 100, read-out: Plant response rating, Barnyardgrass
  pest or weed control at 500 g/ha: 30%
[9]; pre-emergence, Preemergence, scale 0 to 100 (0 no effect, 100 complete control), read-out: Plant response rating, Barnyardgrass
  pest or weed control at 125 g/ha: 0%
[9]; pre-emergence, Preemergence, scale 0 to 100 (0 no effect, 100 complete control), read-out: Barnyardgrass plant response rating
  pest or weed control at 500 g/ha: 0%
[10]; post-emergence, Postemergence, scale 0 to 100 (0 no effect, 100 complete control), read-out: Pigweed plant response rating
  pest or weed control at 125 g/ha: 80%
[10]; post-emergence, Postemergence, scale 0 to 100, read-out: Plant response rating, Pigweed
  pest or weed control at 500 g/ha: 90%
[10]; pre-emergence, Preemergence, scale 0 to 100 (0 no effect, 100 complete control), read-out: Plant response rating, Pigweed
  pest or weed control at 125 g/ha: 50%
[10]; pre-emergence, Preemergence, scale 0 to 100 (0 no effect, 100 complete control), read-out: Pigweed plant response rating
  pest or weed control at 500 g/ha: 90%
[11]; post-emergence, Postemergence, scale 0 to 100 (0 no effect, 100 complete control), read-out: Velvetleaf plant response rating
  pest or weed control at 125 g/ha: 50%
[11]; post-emergence, Postemergence, scale 0 to 100, read-out: Plant response rating, Velvetleaf
  pest or weed control at 500 g/ha: 80%
[11]; pre-emergence, Preemergence, scale 0 to 100 (0 no effect, 100 complete control), read-out: Plant response rating, Velvetleaf
  pest or weed control at 125 g/ha: 10%
[11]; pre-emergence, Preemergence, scale 0 to 100 (0 no effect, 100 complete control), read-out: Velvetleaf plant response rating
  pest or weed control at 500 g/ha: 70%
[12]; post-emergence, Postemergence, scale 0 to 100 (0 no effect, 100 complete control), read-out: Foxtail, Giant plant response rating
  pest or weed control at 125 g/ha: 0%
[12]; post-emergence, Postemergence, scale 0 to 100, read-out: Plant response rating, Foxtail, Giant
  pest or weed control at 500 g/ha: 0%
[12]; pre-emergence, Preemergence, scale 0 to 100 (0 no effect, 100 complete control), read-out: Plant response rating, Foxtail, Giant
  pest or weed control at 125 g/ha: 0%
[12]; pre-emergence, Preemergence, scale 0 to 100 (0 no effect, 100 complete control), read-out: Foxtail, Giant plant response rating
  pest or weed control at 500 g/ha: 0%
[13]; post-emergence, Postemergence, scale 0 to 100 (0 no effect, 100 complete control), read-out: Cocklebur plant response rating
  pest or weed control at 125 g/ha: 80%
[13]; post-emergence, Postemergence, scale 0 to 100, read-out: Plant response rating, Cocklebur
  pest or weed control at 500 g/ha: 90%
[13]; pre-emergence, Preemergence, scale 0 to 100 (0 no effect, 100 complete control), read-out: Plant response rating, Cocklebur
  pest or weed control at 125 g/ha: 40%
[13]; pre-emergence, Preemergence, scale 0 to 100 (0 no effect, 100 complete control), read-out: Cocklebur plant response rating
  pest or weed control at 500 g/ha: 70%
[14]; post-emergence, Postemergence, scale 0 to 100 (0 no effect, 100 complete control), read-out: Lambsquarters plant response rating
  pest or weed control at 125 g/ha: 80%
[14]; post-emergence, Postemergence, scale 0 to 100, read-out: Plant response rating, Lambsquarters
  pest or weed control at 500 g/ha: 90%
[14]; pre-emergence, Preemergence, scale 0 to 100 (0 no effect, 100 complete control), read-out: Plant response rating, Lambsquarters
  pest or weed control at 125 g/ha: 40%
[14]; pre-emergence, Preemergence, scale 0 to 100 (0 no effect, 100 complete control), read-out: Lambsquarters plant response rating
  pest or weed control at 500 g/ha: 90%
[15]; post-emergence, Postemergence, scale 0 to 100 (0 no effect, 100 complete control), read-out: Morningglory plant response rating
  pest or weed control at 125 g/ha: 80%
[15]; post-emergence, Postemergence, scale 0 to 100, read-out: Plant response rating, Morningglory
  pest or weed control at 500 g/ha: 90%
[15]; pre-emergence, Preemergence, scale 0 to 100 (0 no effect, 100 complete control), read-out: Plant response rating, Morningglory
  pest or weed control at 125 g/ha: 20%
[15]; pre-emergence, Preemergence, scale 0 to 100 (0 no effect, 100 complete control), read-out: Morningglory plant response rating
  pest or weed control at 500 g/ha: 80%
[16]; post-emergence, Postemergence, 125 g ai/ha, scale 0 to 100 (0 no effect, 100 complete control), read-out: Corn plant response rating
  plant injury at 125 g/ha: 0%
[16]; post-emergence, Postemergence, 500 g ai/ha, scale 0 to 100
  Corn plant response rating (crop injury, 0 = no effect, 100 = complete kill) at 500 g/ha: 0%
[16]; pre-emergence, Preemergence, 125 g ai/ha, scale 0 to 100 (0 no effect, 100 complete control)
  Corn plant response rating (crop injury, 0 = no effect, 100 = complete kill) at 125 g/ha: 0%
[16]; pre-emergence, Preemergence, 500 g ai/ha, scale 0 to 100 (0 no effect, 100 complete control), read-out: Corn plant response rating
  plant injury at 500 g/ha: 0%
[17]; post-emergence, Postemergence, scale 0 to 100 (0 no effect, 100 complete control), read-out: Wheat plant response rating
  plant injury at 125 g/ha: 50%
[17]; post-emergence, Postemergence, scale 0 to 100, read-out: Plant response rating, Wheat
  plant injury at 500 g/ha: 50%
[17]; [18]
  plant injury at 125 g/ha: 10%
  plant injury at 500 g/ha: 10%
